Data published in US8143263B2, “Therapeutic agents” (Astrazeneca AB, priority 2008, dated 2012).

Target: T1, recombinant human pancreatic GLK (Homo sapiens, UniProt P35557)
T1 sequence (P35557 1-465): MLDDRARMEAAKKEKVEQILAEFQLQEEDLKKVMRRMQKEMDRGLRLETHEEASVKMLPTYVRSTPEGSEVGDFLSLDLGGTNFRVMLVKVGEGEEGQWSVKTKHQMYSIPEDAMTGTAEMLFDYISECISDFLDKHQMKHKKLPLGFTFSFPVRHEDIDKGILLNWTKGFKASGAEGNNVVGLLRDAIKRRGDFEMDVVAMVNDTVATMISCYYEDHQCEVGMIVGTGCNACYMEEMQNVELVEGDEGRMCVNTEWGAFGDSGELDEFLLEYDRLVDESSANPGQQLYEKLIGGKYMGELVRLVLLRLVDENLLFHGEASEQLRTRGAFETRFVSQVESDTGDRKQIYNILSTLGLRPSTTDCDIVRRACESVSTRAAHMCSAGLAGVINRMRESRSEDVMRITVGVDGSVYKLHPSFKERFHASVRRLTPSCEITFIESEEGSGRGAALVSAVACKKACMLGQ
Experiment: biochemical

COCC(Oc1ncnc2c1cnn2-c1ccc(Cl)cc1Cl)C(=O)Nc1ccc(C)cn1 (stereo not shown) [Example 7, 2-{[1-(2,4-Dichlorophenyl)-1H-pyrazolo[3,4-d]pyrimidin-4-yl]oxy}-3-methoxy-N-(5-methylpyridin-2-yl)propanamide]
EC50: 3.7 µM

Cc1ccc(NC(=O)C(CCC(=O)O)Oc2ncnc3c2cnn3-c2ccccc2Cl)nc1 (stereo not shown) [Example 49, 4-{[1-(2-chlorophenyl)-1H-pyrazolo[3,4-d]pyrimidin-4-yl]oxy}-5-[(5-methylpyridin-2-yl)amino]-5-oxopentanoic acid]
EC50: 34 µM

Cc1ccc(NC(=O)[C@@H](Oc2ncnc3c2cnn3-c2ccccc2Cl)C(C)C)nc1 [Example 84, (2S)-2-(1-(2-chlorophenyl)-1H-pyrazolo[3,4-d]pyrimidin-4-yloxy)-3-methyl-N-(5-methylpyridin-2-yl)butanamide]
EC50: 0.47 µM

Cc1cnc(NC(=O)[C@H](CCO)Oc2ncnc3c2cnn3-c2ncccc2Cl)cn1 [Example 143a, (2S)-2-[1-(3-chloro-2-pyridyl)pyrazolo[4,5-e]pyrimidin-4-yl]oxy-4-hydroxy-N-(5-methylpyrazin-2-yl)butanamide]
EC50: 2.6 µM

CC(C)OC[C@H](Oc1ncnc2c1cnn2-c1ncccc1Cl)C(=O)Nc1ccccn1 [Example 127k, (2S)-2-[1-(3-chloro-2-pyridyl)pyrazolo[4,5-e]pyrimidin-4-yl]oxy-3-isopropoxy-N-(2-pyridyl)propanamide]
EC50: 0.56 µM

Cc1cnc(NC(=O)[C@H](CO[C@H](C)CO)Oc2ncnc3c2cnn3-c2ccccc2Cl)cn1 [Example 247, (2S)-2-[1-(2-chlorophenyl)pyrazolo[3,4-d]pyrimidin-4-yl]oxy-3-[(1R)-2-hydroxy-1-methyl-ethoxy]-N-(5-methylpyrazin-2-yl)propanamide]
EC50: 0.59 µM

COCCC(Oc1ncnc2c1cnn2-c1cccc(C)c1)C(=O)Nc1ccc(C)cn1 (stereo not shown) [Example 31, 4-Methoxy-2-{[1-(3-methylphenyl)-1H-pyrazolo[3,4-d]pyrimidin-4-yl]oxy}-N-(5-methylpyridin-2-yl)butanamide]
EC50: 0.35 µM

O=C(Nc1ccccn1)[C@H](CN1CC(CO)C1)Oc1ncnc2c1cnn2-c1ccccc1Cl [Example 228, (2S)-2-[1-(2-chlorophenyl)pyrazolo[3,4-d]pyrimidin-4-yl]oxy-3-[3-(hydroxymethyl)azetidin-1-yl]-N-(2-pyridyl)propanamide]
EC50: 0.46 µM

Cc1nnc(NC(=O)C(COC(C)C)Oc2ncnc3c2cnn3-c2ccccc2Cl)s1 (stereo not shown) [Example 109, 2-[1-(2-chlorophenyl)pyrazolo[4,5-e]pyrimidin-4-yl]oxy-3-isopropoxy-N-(5-methyl-1,3,4-thiadiazol-2-yl)propanamide]
EC50: 3.2 µM

Cc1cccnc1-n1ncc2c(O[C@@H](COC(C)C)C(=O)Nc3ccc(C#N)cn3)ncnc21 [Example 127a, (2S)—N-(5-cyanopyridin-2-yl)-3-isopropoxy-2-(1-(3-methylpyridin-2-yl)-1H-pyrazolo[3,4-d]pyrimidin-4-yloxy)propanamide]
EC50: 1.1 µM

Cc1ccc(NC(=O)[C@H](COC(C)C)Oc2ncnc3c2cnn3-c2nccn2C)nc1 [Example 211, (2S)-3-isopropoxy-2-(1-(1-methyl-1H-imidazol-2-yl)-1H-pyrazolo[3,4-d]pyrimidin-4-yloxy)-N-(5-methylpyridin-2-yl)propanamide]
EC50: 1.1 µM

Cc1c(F)cccc1-n1ncc2c(O[C@@H](COCCO)C(=O)Nc3ccc(Cl)cn3)ncnc21 [Example 170, (2S)—N-(5-chloropyridin-2-yl)-2-[1-(3-fluoro-2-methylphenyl)pyrazolo[4,5-e]pyrimidin-4-yl]oxy-3-(2-hydroxyethoxy)propanamide]
EC50: 1.5 µM

COCCOCCC(Sc1ncnc2c1cnn2C(C)C)C(=O)Nc1ccc(C)cn1 (stereo not shown) [Example 58, 2-[(1-Isopropyl-1H-pyrazolo[3,4-d]pyrimidin-4-yl)thio]-4-(2-methoxyethoxy)-N-(5-methylpyridin-2-yl)butanamide]
EC50: 1.95 µM

CCOC[C@H](Oc1ncnc2c1cnn2-c1ncccc1Cl)C(=O)Nc1ccccn1 [Example 127e, (2S)-2-[1-(3-chloro-2-pyridyl)pyrazolo[4,5-e]pyrimidin-4-yl]oxy-3-ethoxy-N-(2-pyridyl)propanamide]
EC50: 0.55 µM

Cc1ccc(NC(=O)[C@H](CO[C@H](C)CO)Oc2ncnc3c2cnn3-c2c(Cl)cccc2C#N)nc1 [Example 175, (2S)-2-(1-(2-chloro-6-cyanophenyl)-1H-pyrazolo[3,4-d]pyrimidin-4-yloxy)-3-((R)-1-hydroxypropan-2-yloxy)-N-(5-methylpyridin-2-yl)propanamide]
EC50: 0.27 µM

CCOC[C@H](Oc1ncnc2c1cnn2-c1ncccc1Cl)C(=O)Nc1cnc(C)cn1 [Example 104, (2S)-2-[1-(3-Chloropyridin-2-yl)pyrazolo[4,5-e]pyrimidin-4-yl]oxy-3-ethoxy-N-(5-methylpyrazin-2-yl)propanamide]
EC50: 1.2 µM

COc1ccccc1-n1ncc2c(OC(C)C(=O)Nc3ccc(C)cn3)ncnc21 (stereo not shown) [Example 44, 2-{[1-(2-Methoxyphenyl)-1H-pyrazolo[3,4-d]pyrimidin-4-yl]oxy}-N-(5-methylpyridin-2-yl)propanamide]
EC50: 3.4 µM

COCCC(Sc1ncnc2c1cnn2-c1ccccc1Cl)C(=O)Nc1nc(C)cs1 (stereo not shown) [Example 53, 2-{[1-(2-chlorophenyl)-1H-pyrazolo[3,4-d]pyrimidin-4-yl]thio}-4-methoxy-N-(4-methyl-1,3-thiazol-2-yl)butanamide]
EC50: 0.78 µM

Cc1ccc(NC(=O)[C@H](CCO)Oc2ncnc3c2cnn3-c2ncccc2Cl)nc1 [Example 143, (2S)-2-[1-(3-chloro-2-pyridyl)pyrazolo[4,5-e]pyrimidin-4-yl]oxy-4-hydroxy-N-(5-methyl-2-pyridyl)butanamide]
EC50: 0.18 µM

N#Cc1cccc(Cl)c1-n1ncc2c(O[C@@H](COCCO)C(=O)Nc3ccc(Cl)cn3)ncnc21 [Example 174, (2S)-2-(1-(2-chloro-6-cyanophenyl)-1H-pyrazolo[3,4-d]pyrimidin-4-yloxy)-N-(5-chloropyridin-2-yl)-3-(2-hydroxyethoxy)propanamide]
EC50: 0.23 µM

Cc1ccc(NC(=O)[C@H](COC(C)C)Oc2ncnc3c2cnn3-c2cccnc2C)nc1 [Example 146, (2S)-3-isopropoxy-N-(5-methyl-2-pyridyl)-2-[1-(2-methyl-3-pyridyl)pyrazolo[4,5-e]pyrimidin-4-yl]oxy-propanamide]
EC50: 0.96 µM

Cc1ccc(NC(=O)[C@H](CO[C@H](C)CO)Oc2ncnc3c2cnn3-c2cscc2C)nc1 [Example 227, (2S)-3-[(1R)-2-hydroxy-1-methyl-ethoxy]-N-(5-methyl-2-pyridyl)-2-[1-(4-methyl-3-thienyl)pyrazolo[3,4-d]pyrimidin-4-yl]oxy-propanamide]
EC50: 0.32 µM

Cc1ccc(NC(=O)[C@H](CCO)Oc2ncnc3c2cnn3-c2ccccc2Cl)nc1 [Example 145, (2S)-2-[1-(2-chlorophenyl)pyrazolo[4,5-e]pyrimidin-4-yl]oxy-4-hydroxy-N-(5-methyl-2-pyridyl)butanamide]
EC50: 0.23 µM

C[C@@H](CO)OC[C@H](Oc1ncnc2c1cnn2-c1ncccc1Cl)C(=O)Nc1ccc(F)cn1 [Example 192, (2S)-2-(1-(3-chloropyridin-2-yl)-1H-pyrazolo[3,4-d]pyrimidin-4-yloxy)-N-(5-fluoropyridin-2-yl)-3-((S)-1-hydroxypropan-2-yloxy)propanamide]
EC50: 0.36 µM

O=C(Nc1ccccn1)[C@H](COCCO)Oc1ncnc2c1cnn2-c1c(Cl)cccc1Cl [Example 250, (2S)-2-[1-(2,6-dichlorophenyl)pyrazolo[3,4-d]pyrimidin-4-yl]oxy-3-(2-hydroxyethoxy)-N-(2-pyridyl)propanamide]
EC50: 0.23 µM

Cc1ccc(NC(=O)[C@H](CN2CC(O)C2)Oc2ncnc3c2cnn3-c2ncccc2Cl)nc1 [Example 206, (2S)-2-(1-(3-chloropyridin-2-yl)-1H-pyrazolo[3,4-d]pyrimidin-4-yloxy)-3-(3-hydroxyazetidin-1-yl)-N-(5-methylpyridin-2-yl)propanamide]
EC50: 0.57 µM

COC[C@H](Oc1ncnc2c1cnn2-c1ccccc1Cl)C(=O)Nc1nc(C)ns1 [Example 101, (2S)-2-(1-(2-Chlorophenyl)-1H-pyrazolo[3,4-d]pyrimidin-4-yloxy)-3-methoxy-N-(3-methyl-1,2,4-thiadiazol-5-yl)propanamide]
EC50: 5 µM

COC[C@H](Oc1ncnc2c1cnn2-c1ccc(F)cc1Cl)C(=O)Nc1ccc(C)cn1 [Example 96, (2S)-2-(1-(2-chloro-4-fluorophenyl)-1H-pyrazolo[3,4-d]pyrimidin-4-yloxy)-3-methoxy-N-(5-methylpyridin-2-yl)propanamide]
EC50: 1.3 µM

COc1ccccc1-n1ncc2c(O[C@H](CCS(C)(=O)=O)C(=O)Nc3ccc(C)cn3)ncnc21 [Example 11, (R)-2-{[1-(2-methoxyphenyl)-1H-pyrazolo[3,4-d]pyrimidin-4-yl]oxy}-N-(5-methylpyridin-2-yl)-4-(methylsulfonyl)butanamide]
EC50: ≥ 100 µM

CC(C)OC[C@H](Oc1ncnc2c1cnn2-c1ncccc1Cl)C(=O)Nc1ccc(C#N)cn1 [Example 127j, (2S)-2-[1-(3-chloro-2-pyridyl)pyrazolo[4,5-e]pyrimidin-4-yl]oxy-N-(5-cyano-2-pyridyl)-3-isopropoxy-propanamide]
EC50: 0.58 µM

N#Cc1ccc(NC(=O)[C@H](CN2CC(O)C2)Oc2ncnc3c2cnn3-c2c(Cl)cccc2C#N)nc1 [Example 224, (2S)-2-[1-(2-chloro-6-cyano-phenyl)pyrazolo[3,4-d]pyrimidin-4-yl]oxy-N-(5-cyano-2-pyridyl)-3-(3-hydroxyazetidin-1-yl)propanamide]
EC50: 0.51 µM
